From patent US20260234543A1, “MICROORGANISMS AND METHODS FOR REDUCING BY-PRODUCTS” (Genomatica, Inc., priority 2023, published 2026)

Key:
[1] = tested on: acyl-CoA synthetase (ACS) (SEQ ID NO: 1); test: ACS activity on substrates of various chain lengths (enzymatic coupled assay for detection of AMP); format: biochemical, Ruegeria pomeroyi; conditions: 5 mM substrate, pH 7.5; for Activity: 250 μM CoA, 1 mM ATP
Experimental: Purified acyl-CoA synthetase (ACS) (GenBank Accession No. WP_011046428.1; see, SEQ ID NO: 1) was assayed for activity on a range of substrates of various chain lengths. The substrates tested, which were conjugate bases (or carboxylates) of C2-C8 carboxylic acids, included acetate (C2), acetoacetate (C4), butyrate (C4), (R)- and(S)-3-hydroxybutryate ((R)-3-HB and(S)-3HB; C4), succinate (C4), hexanoate (C6), adipate (C6), 6-aminocaproic acid (6ACA; C6), and octanoate (C8).
An enzymatic coupled assay for detection of AMP, which is a co-product of the synthetase/ligase enzymatic reaction catalyzed by the ACS/CoA ligase, was used. The coupling enzymes used were adenylate kinase, pyruvate dehydrogenase, and lactate dehydrogenase, which catalyze reactions resulting in the oxidation of 2 NADH molecules per molecule of AMP produced by the ACS/CoA ligase enzymatic reaction. The coupling reagents for AMP detection were phospho (enol) pyruvate and NADH. The ACS/CoA ligase enzymatic reactions were followed by monitoring NADH oxidation over time, by measuring absorbance at 340 nm.
Reactions were set up in 96-well absorbance plates, in aqueous buffer at pH 7.5, and 5 mM of conjugate base substrate, 250 μM of Coenzyme A (CoA), 1 mM of ATP, 5 mM of MgCl2, 1 mM of phospho (enol) pyruvate, 500 μM of NADH, and non-rate limiting concentrations of the three coupling enzymes (adenylate kinase, pyruvate dehydrogenase, and lactate dehydrogenase), were added for each reaction. The ACS enzyme was added at a concentration that was appropriate for measuring a linear change on absorbance over up to 20 minutes. For example, 100 nM of ACS was added for the reactions with butyrate or 3-HB as the substrates. Negative control reactions omitted the substrate (conjugate base), the CoA, or the ACS enzyme.

[2] = tested on: CAR enzyme (SEQ ID NO: 3); test: In vitro CAR activity for conversion of 3HB to 3HB-Ald (NADPH absorbance at 340 nm); format: biochemical, Mycobacterium avium; conditions: for CAR Activity: 1 μM CAR, 0.5 mM NADPH, 1 mM ATP
Experimental: In vitro CAR activity for the conversion of 3HB to 3HB—Ald was determined by direct measurement of the decrease in NADPH concentration, by measuring NADPH absorbance at 340 nm over time. The reactions were carried out in 96-well absorbance plates, and varying concentrations of 3HB substrate (see, TABLE 8 below), 0.5 mM of NADPH, 1 mM of ATP, 5 mM of MgCl2, and 1 μM of CAR enzyme (see, SEQ ID NO: 3) were added. A negative control reaction was included, in which addition of 3HB substrate was omitted. CAR activity was measured as μM of NADPH oxidized per minute per μM of CAR enzyme.

| Structure (SMILES) | Activity [1] | ACS activity on substrate (in words) [1] | further results |
| --- | --- | --- | --- |
| CC(=O)CC(=O)O [Acetoacetate] | 34 μM AMP/min/μM ACS | exhibits activity | – |
| CC(=O)O [Acetate] | 38 μM AMP/min/μM ACS | exhibits activity | – |
| O=C(O)CCCCC(=O)O [Adipate, adipate] | No activity | – | – |
| O=C(O)CCC(=O)O [Succinate, succinate] | 0.06 μM AMP/min/μM ACS | exhibits activity | – |
| CC(O)CC(=O)O (stereo not drawn) [Strain 3HB, 3-hydroxybutyrate] | – | has activity on both the (R) and(S) forms | CAR activity as a function of 3HB concentration (in words) ([2]; 0.78125-50 mM 3HB): CAR activity increases as the concentration of 3HB substrate increases; CAR Activity ([2]; 3HB substrate 0.78125 mM): 0.47 μM NADPH oxidized/min/μM CAR; CAR Activity ([2]; 3HB substrate 1.5625 mM): 1.30 μM NADPH oxidized/min/μM CAR; CAR Activity ([2]; 3HB substrate 3.125 mM): 2.61 μM NADPH oxidized/min/μM CAR; CAR Activity ([2]; 3HB substrate 6.25 mM): 4.24 μM NADPH oxidized/min/μM CAR; CAR Activity ([2]; 3HB substrate 12.5 mM): 5.87 μM NADPH oxidized/min/μM CAR; CAR Activity ([2]; 3HB substrate 25 mM): 8.81 μM NADPH oxidized/min/μM CAR; CAR Activity ([2]; 3HB substrate 50 mM): 10.25 μM NADPH oxidized/min/μM CAR |
| C[C@@H](O)CC(=O)O [(R)-3HB, (3R)-hydroxybutyrate] | 322 μM AMP/min/μM ACS | – | – |
| CCCCCCCC(=O)O [Octanoate, octanoate] | No activity | – | – |
| NCCCCCC(=O)O [Strain 6ACA, 6-aminocaproic acid] | 0.015 μM AMP/min/μM ACS | exhibits activity | – |
| C[C@H](O)CC(=O)O [(S)-3HB, (3S)-hydroxybutyrate] | 222 μM AMP/min/μM ACS | – | – |
